The IC50 is the concentration needed to halve the response being measured. A higher IC50 goes with weaker potency in that assay.

The values that follow come from paper PMC11790708, “Clioquinol inhibits angiogenesis by promoting VEGFR2 degradation and synergizes with AKT inhibition to suppress triple-negative breast cancer vascularization” (Angiogenesis, 2025).

In this experiment the target is T1, VEGFR2 (Homo sapiens, UniProt P35968).
T1 construct: gene KDR; recombinant VEGFR2 (amino acids 789 to end)
T1 sequence (P35968 789-1356): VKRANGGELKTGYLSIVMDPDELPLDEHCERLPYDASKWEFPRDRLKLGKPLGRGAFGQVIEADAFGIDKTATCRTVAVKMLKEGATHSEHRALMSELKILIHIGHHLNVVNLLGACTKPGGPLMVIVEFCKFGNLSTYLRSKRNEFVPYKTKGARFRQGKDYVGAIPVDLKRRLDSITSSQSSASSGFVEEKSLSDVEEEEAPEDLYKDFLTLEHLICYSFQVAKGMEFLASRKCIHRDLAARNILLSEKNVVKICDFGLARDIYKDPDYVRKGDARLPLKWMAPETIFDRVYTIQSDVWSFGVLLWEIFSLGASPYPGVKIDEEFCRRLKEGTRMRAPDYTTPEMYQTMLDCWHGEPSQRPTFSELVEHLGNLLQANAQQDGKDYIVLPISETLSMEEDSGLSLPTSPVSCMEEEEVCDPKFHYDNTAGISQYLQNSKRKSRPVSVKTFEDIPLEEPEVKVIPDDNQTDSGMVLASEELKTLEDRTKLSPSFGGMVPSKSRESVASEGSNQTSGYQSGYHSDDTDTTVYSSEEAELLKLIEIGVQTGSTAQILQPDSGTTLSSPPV
Nature of the experiment: cell-free ADP-Glo kinase assay at […] ATP, with ATP competition at […] ATP. Format: biochemical. (ADP-Glo turns the ADP formed in a reaction into a luminescent signal.)

`Oc1c(I)cc(Cl)c2cccnc12` [clioquinol] returned an IC50 of 34.6 µM.
